Laboratory results published in PubChem BioAssay (NCI).
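Tested at 5 concentrations; 48 h exposure; 96-well plates; endpoints linearly interpolated, else capped at highest concentration. The concentration for full growth arrest is given as TGI.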

How the values were obtained:
Test in all cases: NCI-60 cell line screen, 48 h
786-0 renal = tested on: 786-0 renal
A498 renal = tested on: A498 renal
A549 NSCLC = tested on: A549 NSCLC
ACHN renal = tested on: ACHN renal
CAKI-1 renal = tested on: CAKI-1 renal
CCRF-CEM leukemia = tested on: CCRF-CEM leukemia
COLO 205 colon = tested on: COLO 205 colon
DLD-1 colon = tested on: DLD-1 colon
DMS 114 small cell lung = tested on: DMS 114 small cell lung
DMS 273 small cell lung = tested on: DMS 273 small cell lung
EKVX NSCLC = tested on: EKVX NSCLC
HCC-2998 colon = tested on: HCC-2998 colon
HCT-116 colon = tested on: HCT-116 colon
HCT-15 colon = tested on: HCT-15 colon
HL-60(TB) leukemia = tested on: HL-60(TB) leukemia
HOP-18 NSCLC = tested on: HOP-18 NSCLC
HOP-62 NSCLC = tested on: HOP-62 NSCLC
HOP-92 NSCLC = tested on: HOP-92 NSCLC
HT29 colon = tested on: HT29 colon
IGROV1 ovarian = tested on: IGROV1 ovarian
K-562 leukemia = tested on: K-562 leukemia
KM12 colon = tested on: KM12 colon
KM20L2 colon = tested on: KM20L2 colon
LOX IMVI melanoma = tested on: LOX IMVI melanoma
LXFL 529 NSCLC = tested on: LXFL 529 NSCLC
M14 melanoma = tested on: M14 melanoma
M19-MEL melanoma = tested on: M19-MEL melanoma
MALME-3M melanoma = tested on: MALME-3M melanoma
MOLT-4 leukemia = tested on: MOLT-4 leukemia
NCI-H226 lung = tested on: NCI-H226 lung
NCI-H23 lung = tested on: NCI-H23 lung
NCI-H460 lung = tested on: NCI-H460 lung
NCI-H522 lung = tested on: NCI-H522 lung
OVCAR-3 ovarian = tested on: OVCAR-3 ovarian
OVCAR-4 ovarian = tested on: OVCAR-4 ovarian
OVCAR-5 ovarian = tested on: OVCAR-5 ovarian
OVCAR-8 ovarian = tested on: OVCAR-8 ovarian
RPMI-8226 leukemia = tested on: RPMI-8226 leukemia
RXF 393 renal = tested on: RXF 393 renal
SF-268 CNS = tested on: SF-268 CNS
SF-295 CNS = tested on: SF-295 CNS
SF-539 CNS = tested on: SF-539 CNS
SK-MEL-2 melanoma = tested on: SK-MEL-2 melanoma
SK-MEL-28 melanoma = tested on: SK-MEL-28 melanoma
SK-MEL-5 melanoma = tested on: SK-MEL-5 melanoma
SK-OV-3 ovarian = tested on: SK-OV-3 ovarian
SN12C renal = tested on: SN12C renal
SNB-19 CNS = tested on: SNB-19 CNS
SNB-75 CNS = tested on: SNB-75 CNS
SNB-78 CNS = tested on: SNB-78 CNS
SR leukemia = tested on: SR leukemia
SW-620 colon = tested on: SW-620 colon
TK-10 renal = tested on: TK-10 renal
UACC-257 melanoma = tested on: UACC-257 melanoma
UACC-62 melanoma = tested on: UACC-62 melanoma
UO-31 renal = tested on: UO-31 renal
XF 498 CNS = tested on: XF 498 CNS
RXF-631 renal = tested on: RXF-631 renal
U251 CNS = tested on: U251 CNS

## CN(C)CC1CCC(=C2CCCC2)C1=O (stereo unspecified)
786-0 renal
  TGI: 19.7 µM
A498 renal
  TGI: 35.4 µM
A549 NSCLC
  TGI: 39.8 µM
ACHN renal
  TGI: 21.4 µM
CAKI-1 renal
  TGI: > 100 µM
CCRF-CEM leukemia
  TGI: 9.54 µM
COLO 205 colon
  TGI: 33.4 µM
DLD-1 colon
  TGI: 7.02 µM
DMS 114 small cell lung
  TGI: 25 µM
DMS 273 small cell lung
  TGI: 34.8 µM
EKVX NSCLC
  TGI: 34.7 µM
HCC-2998 colon
  TGI: 32.5 µM
HCT-116 colon
  TGI: 29.3 µM
HCT-15 colon
  TGI: 15.9 µM
HL-60(TB) leukemia
  TGI: 15.4 µM
HOP-18 NSCLC
  TGI: 31.2 µM
HOP-62 NSCLC
  TGI: 19.1 µM
HOP-92 NSCLC
  TGI: 20.1 µM
HT29 colon
  TGI: 32.6 µM
IGROV1 ovarian
  TGI: 34.4 µM
K-562 leukemia
  TGI: 8.76 µM
KM12 colon
  TGI: 25.6 µM
KM20L2 colon
  TGI: 36.3 µM
LOX IMVI melanoma
  TGI: 31.8 µM
LXFL 529 NSCLC
  TGI: 12.6 µM
M14 melanoma
  TGI: 23.3 µM
M19-MEL melanoma
  TGI: 32.9 µM
MALME-3M melanoma
  TGI: 11 µM
MOLT-4 leukemia
  TGI: > 20.7 µM
NCI-H226 lung
  TGI: 32.2 µM
NCI-H23 lung
  TGI: 36.3 µM
NCI-H460 lung
  TGI: 45.8 µM
NCI-H522 lung
  TGI: 3.39 µM
OVCAR-3 ovarian
  TGI: 26.3 µM
OVCAR-4 ovarian
  TGI: 31 µM
OVCAR-5 ovarian
  TGI: 30.9 µM
OVCAR-8 ovarian
  TGI: 39.1 µM
RPMI-8226 leukemia
  TGI: 4.81 µM
RXF 393 renal
  TGI: 27.9 µM
SF-268 CNS
  TGI: 26.4 µM
SF-295 CNS
  TGI: > 100 µM
SF-539 CNS
  TGI: 40 µM
SK-MEL-2 melanoma
  TGI: 33.5 µM
SK-MEL-28 melanoma
  TGI: 27.4 µM
SK-MEL-5 melanoma
  TGI: 32 µM
SK-OV-3 ovarian
  TGI: > 100 µM
SN12C renal
  TGI: 24.9 µM
SNB-19 CNS
  TGI: > 100 µM
SNB-75 CNS
  TGI: 30.7 µM
SNB-78 CNS
  TGI: 34.4 µM
SR leukemia
  TGI: 21.1 µM
SW-620 colon
  TGI: > 20.9 µM
TK-10 renal
  TGI: 25.2 µM
UACC-257 melanoma
  TGI: 31.8 µM
UACC-62 melanoma
  TGI: 31.4 µM
UO-31 renal
  TGI: 32.3 µM
XF 498 CNS
  TGI: 12.4 µM

## O=C(OC1CC(n2cc(F)c(=O)[nH]c2=O)OC1CSC(=O)c1ccccc1)c1ccccc1 (stereo unspecified)
786-0 renal
  TGI: > 100 µM
A498 renal
  TGI: > 100 µM
A549 NSCLC
  TGI: 92.4 µM
ACHN renal
  TGI: > 100 µM
CCRF-CEM leukemia
  TGI: > 100 µM
COLO 205 colon
  TGI: 88.7 µM
DLD-1 colon
  TGI: > 100 µM
DMS 114 small cell lung
  TGI: > 100 µM
EKVX NSCLC
  TGI: 90.5 µM
HCC-2998 colon
  TGI: 75.2 µM
HCT-116 colon
  TGI: > 100 µM
HCT-15 colon
  TGI: > 100 µM
HL-60(TB) leukemia
  TGI: 53.3 µM
HOP-18 NSCLC
  TGI: 97.4 µM
HOP-62 NSCLC
  TGI: > 100 µM
HOP-92 NSCLC
  TGI: 56 µM
HT29 colon
  TGI: 34.4 µM
IGROV1 ovarian
  TGI: > 100 µM
K-562 leukemia
  TGI: > 100 µM
KM12 colon
  TGI: 91.2 µM
KM20L2 colon
  TGI: 33.9 µM
LOX IMVI melanoma
  TGI: > 100 µM
LXFL 529 NSCLC
  TGI: > 100 µM
M14 melanoma
  TGI: > 100 µM
M19-MEL melanoma
  TGI: 67 µM
MALME-3M melanoma
  TGI: 84.5 µM
MOLT-4 leukemia
  TGI: 81.1 µM
NCI-H226 lung
  TGI: 75.9 µM
NCI-H23 lung
  TGI: > 100 µM
NCI-H460 lung
  TGI: > 100 µM
NCI-H522 lung
  TGI: 87 µM
OVCAR-3 ovarian
  TGI: 53.3 µM
OVCAR-4 ovarian
  TGI: > 100 µM
OVCAR-5 ovarian
  TGI: > 100 µM
OVCAR-8 ovarian
  TGI: > 100 µM
RPMI-8226 leukemia
  TGI: 57.4 µM
RXF 393 renal
  TGI: 81.1 µM
RXF-631 renal
  TGI: 40.3 µM
SF-268 CNS
  TGI: 68.8 µM
SF-295 CNS
  TGI: > 100 µM
SF-539 CNS
  TGI: > 100 µM
SK-MEL-2 melanoma
  TGI: > 100 µM
SK-MEL-28 melanoma
  TGI: > 100 µM
SK-OV-3 ovarian
  TGI: > 100 µM
SN12C renal
  TGI: > 100 µM
SNB-19 CNS
  TGI: > 100 µM
SNB-75 CNS
  TGI: 65.6 µM
SNB-78 CNS
  TGI: > 100 µM
SW-620 colon
  TGI: > 100 µM
TK-10 renal
  TGI: > 100 µM
U251 CNS
  TGI: 49.8 µM
UACC-257 melanoma
  TGI: 87.6 µM
UACC-62 melanoma
  TGI: > 100 µM
UO-31 renal
  TGI: > 100 µM
